Assay results from patent US6525001B1, “Substituted pyrimidine and pyridine herbicides” (Mid-American Commercialization Corporation, priority 1997, dated 2003).

What was measured:
Format in all cases: in vivo
Set-up in all cases: key: 0 is no effect; 10 is complete control
[1] = tested on: duck salad (Heteranthera limosa); assay: Test B flood test
Method in brief: (§1)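 Each value is a visual injury score relative to controls, with 10 meaning complete control and 0 no effect. Evaluation took place twelve to sixteen days after the 2-leaf-stage plants were treated and kept in the greenhouse.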

[2] = tested on: bamyardgrass (Echinochloa crus-galli); assay: Test B flood test
Method in brief: as §1

[3] = tested on: smallflower flatsedge (Cyperus difformis); assay: Test B flood test
Method in brief: as §1

rice (Oryza sativa) = assay: Test B flood test
Method in brief: as §1

soybean (Glycine max) = assay: Test B pre-/postemergence
Method in brief: (§2)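 Response scores run from 0, meaning no effect, to 10, meaning complete control, assigned by eye relative to controls twelve to sixteen days after spraying. Treatment was both preemergence on planted seed and postemergence on plants at the 1- to 4-leaf stage.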

[4] = tested on: crabgrass (Digitaria sanguinalis); assay: Test B pre-/postemergence
Method in brief: as §2

[5] = tested on: wheat (Triticum aestivum); assay: Test B pre-/postemergence
Method in brief: as §2

[6] = tested on: purple nutsedge (Cyperus rotundus); assay: Test B pre-/postemergence
Method in brief: as §2

[7] = tested on: sugar beet (Beta vulgaris); assay: Test B pre-/postemergence
Method in brief: as §2

rape (Brassica napus) = assay: Test B pre-/postemergence
Method in brief: as §2

[8] = tested on: blackgrass (Alopecurus myosuroides); assay: Test B pre-/postemergence
Method in brief: as §2

corn (Zea mays) = assay: Test B pre-/postemergence
Method in brief: as §2

[9] = tested on: velvetleaf (Abutilon theophrasti); assay: Test B pre-/postemergence
Method in brief: as §2

[10] = tested on: cocklebur (Xanthium strumarium); assay: Test B pre-/postemergence
Method in brief: as §2

[11] = tested on: pigweed (Amaranthus retroflexus); assay: Test B pre-/postemergence
Method in brief: as §2

[12] = Rate 62 g/ha, Postemergence (flood test)
[13] = Rate 125 g/ha, Postemergence, flood test
[14] = Rate 250 g/ha, Postemergence (flood test species)
[15] = Rate 500 g/ha, Postemergence (flood test species)

In the case of `Cc1cnc(-n2ccc(C(F)(F)F)n2)nc1Cc1cccc(C(F)(F)F)c1` [Example 2, 5-methyl-4-[[3-(trifluoromethyl)phenyl]methyl]-2-[3-(trifluoromethyl)-1H-pyrazol-1-yl]pyrimidine], the “Plant response rating, Ducksalad” value [1, 12] is reported as 0, the “Plant response rating, Ducksalad” value [1, 13] is reported as 0 and the “Plant response rating, Ducksalad” value [1, 14] is reported as 2. The “Plant response rating, Ducksalad” value [1, 15] was 2, the “Plant response rating, Barnyardgrass” value [2, 12] was 3 and the “Plant response rating, Barnyardgrass” value [2, 13] was 4. For the same compound, the “Plant response rating, Barnyardgrass” value [2, 14] was 5, the “Plant response rating, Barnyardgrass” value [2, 15] was 6 and the “Plant response rating, S. Flatsedge” value [3, 12] was 3. The “Plant response rating, S. Flatsedge” value [3, 13] was 5, the “Plant response rating, S. Flatsedge” value [3, 14] was 8 and the “Plant response rating, S. Flatsedge” value [3, 15] was 9. For the same compound, the “Plant response rating, Rice” value (rice (Oryza sativa); [12]) was 3, the “Plant response rating, Rice” value (rice (Oryza sativa); [13]) was 4 and the “Plant response rating, Rice” value (rice (Oryza sativa); [14]) was 5. For the same compound, the “Plant response rating, Rice” value (rice (Oryza sativa); [15]) was 6, the “Plant response rating, Soybean” value (soybean (Glycine max); Rate 62 g/ha, Postemergence) was 6 and the “Soybean plant response rating” value (soybean (Glycine max); Rate 62 g/ha, Preemergence) was 0. The “Plant response rating, Soybean” value (soybean (Glycine max); Rate 125 g/ha, Postemergence) was 7, the “Soybean plant response rating” value (soybean (Glycine max); Rate 125 g/ha, Preemergence) was 1 and the “Plant response rating, Soybean” value (soybean (Glycine max); Rate 250 g/ha, Postemergence) was 8. For the same compound, the “Plant response rating, Soybean” value (soybean (Glycine max); Rate 250 g/ha, Preemergence) was 2, the “Plant response rating, Soybean” value (soybean (Glycine max); Rate 500 g/ha, Postemergence) was 8 and the “Plant response rating, Soybean” value (soybean (Glycine max); Rate 500 g/ha, Preemergence) was 5. For the same compound, the “Plant response rating, Crabgrass” value ([4]; Rate 62 g/ha, Postemergence) was 8, the “Crabgrass plant response rating” value ([4]; Rate 62 g/ha, Preemergence) was 9 and the “Plant response rating, Crabgrass” value ([4]; Rate 125 g/ha, Postemergence) was 9. The “Crabgrass plant response rating” value ([4]; Rate 125 g/ha, Preemergence) was 10, the “Plant response rating, Crabgrass” value ([4]; Rate 250 g/ha, Postemergence) was 9 and the “Plant response rating, Crabgrass” value ([4]; Rate 250 g/ha, Preemergence) was 10. For the same compound, the “Plant response rating, Crabgrass” value ([4]; Rate 500 g/ha, Postemergence) was 10, the “Plant response rating, Crabgrass” value ([4]; Rate 500 g/ha, Preemergence) was 10 and the “Plant response rating, Wheat” value ([5]; Rate 62 g/ha, Postemergence) was 2. For the same compound, the “Wheat plant response rating” value ([5]; Rate 62 g/ha, Preemergence) was 1, the “Plant response rating, Wheat” value ([5]; Rate 125 g/ha, Postemergence) was 2 and the “Wheat plant response rating” value ([5]; Rate 125 g/ha, Preemergence) was 2. For the same compound, the “Plant response rating, Wheat” value ([5]; Rate 250 g/ha, Postemergence) was 3, the “Plant response rating, Wheat” value ([5]; Rate 250 g/ha, Preemergence) was 3 and the “Plant response rating, Wheat” value ([5]; Rate 500 g/ha, Postemergence) was 5. For the same compound, the “Plant response rating, Wheat” value ([5]; Rate 500 g/ha, Preemergence) was 3, the “Plant response rating, Nutsedge” value ([6]; Rate 62 g/ha, Postemergence) was 0 and the “Nutsedge plant response rating” value ([6]; Rate 62 g/ha, Preemergence) was 0. The “Plant response rating, Nutsedge” value ([6]; Rate 125 g/ha, Postemergence) was 0, the “Nutsedge plant response rating” value ([6]; Rate 125 g/ha, Preemergence) was 0 and the “Plant response rating, Nutsedge” value ([6]; Rate 250 g/ha, Preemergence) was 0. For the same compound, the “Plant response rating, Nutsedge” value ([6]; Rate 500 g/ha, Postemergence) was 2, the “Plant response rating, Nutsedge” value ([6]; Rate 500 g/ha, Preemergence) was 0 and the “Plant response rating, Sugarbeets” value ([7]; Rate 62 g/ha, Postemergence) was 9. For the same compound, the “Sugarbeets plant response rating” value ([7]; Rate 62 g/ha, Preemergence) was 10, the “Plant response rating, Sugarbeets” value ([7]; Rate 125 g/ha, Postemergence) was 9 and the “Sugarbeets plant response rating” value ([7]; Rate 125 g/ha, Preemergence) was 10. For the same compound, the “Plant response rating, Sugarbeets” value ([7]; Rate 250 g/ha, Postemergence) was 9, the “Plant response rating, Sugarbeets” value ([7]; Rate 250 g/ha, Preemergence) was 10 and the “Plant response rating, Sugarbeets” value ([7]; Rate 500 g/ha, Postemergence) was 9. The “Plant response rating, Sugarbeets” value ([7]; Rate 500 g/ha, Preemergence) was 10, the “Plant response rating, Rape” value (rape (Brassica napus); Rate 62 g/ha, Postemergence) was 9 and the “Rape plant response rating” value (rape (Brassica napus); Rate 62 g/ha, Preemergence) was 10. For the same compound, the “Plant response rating, Rape” value (rape (Brassica napus); Rate 125 g/ha, Postemergence) was 9, the “Rape plant response rating” value (rape (Brassica napus); Rate 125 g/ha, Preemergence) was 10 and the “Plant response rating, Rape” value (rape (Brassica napus); Rate 250 g/ha, Postemergence) was 9. For the same compound, the “Plant response rating, Rape” value (rape (Brassica napus); Rate 250 g/ha, Preemergence) was 10, the “Plant response rating, Rape” value (rape (Brassica napus); Rate 500 g/ha, Postemergence) was 10 and the “Plant response rating, Rape” value (rape (Brassica napus); Rate 500 g/ha, Preemergence) was 10. The “Plant response rating, Blackgrass” value ([8]; Rate 62 g/ha, Postemergence) was 3, the “Blackgrass plant response rating” value ([8]; Rate 62 g/ha, Preemergence) was 3 and the “Plant response rating, Blackgrass” value ([8]; Rate 125 g/ha, Postemergence) was 6. For the same compound, the “Blackgrass plant response rating” value ([8]; Rate 125 g/ha, Preemergence) was 7, the “Plant response rating, Blackgrass” value ([8]; Rate 250 g/ha, Postemergence) was 7 and the “Plant response rating, Blackgrass” value ([8]; Rate 250 g/ha, Preemergence) was 10. For the same compound, the “Plant response rating, Blackgrass” value ([8]; Rate 500 g/ha, Postemergence) was 9, the “Plant response rating, Blackgrass” value ([8]; Rate 500 g/ha, Preemergence) was 10 and the “Plant response rating, Corn” value (corn (Zea mays); Rate 62 g/ha, Postemergence) was 2. The “Corn plant response rating” value (corn (Zea mays); Rate 62 g/ha, Preemergence) was 0, the “Plant response rating, Corn” value (corn (Zea mays); Rate 125 g/ha, Postemergence) was 4 and the “Corn plant response rating” value (corn (Zea mays); Rate 125 g/ha, Preemergence) was 1. For the same compound, the “Plant response rating, Corn” value (corn (Zea mays); Rate 250 g/ha, Postemergence) was 6, the “Plant response rating, Corn” value (corn (Zea mays); Rate 250 g/ha, Preemergence) was 1 and the “Plant response rating, Corn” value (corn (Zea mays); Rate 500 g/ha, Postemergence) was 7. For the same compound, the “Plant response rating, Corn” value (corn (Zea mays); Rate 500 g/ha, Preemergence) was 2, the “Plant response rating, Velvetleaf” value ([9]; Rate 62 g/ha, Postemergence) was 8 and the “Velvetleaf plant response rating” value ([9]; Rate 62 g/ha, Preemergence) was 6. For the same compound, the “Plant response rating, Velvetleaf” value ([9]; Rate 125 g/ha, Postemergence) was 9, the “Velvetleaf plant response rating” value ([9]; Rate 125 g/ha, Preemergence) was 6 and the “Plant response rating, Velvetleaf” value ([9]; Rate 250 g/ha, Postemergence) was 9. The “Plant response rating, Velvetleaf” value ([9]; Rate 250 g/ha, Preemergence) was 8, the “Plant response rating, Velvetleaf” value ([9]; Rate 500 g/ha, Postemergence) was 9 and the “Plant response rating, Velvetleaf” value ([9]; Rate 500 g/ha, Preemergence) was 10. For the same compound, the “Plant response rating, Cocklebur” value ([10]; Rate 62 g/ha, Postemergence) was 8, the “Cocklebur plant response rating” value ([10]; Rate 62 g/ha, Preemergence) was 0 and the “Plant response rating, Cocklebur” value ([10]; Rate 125 g/ha, Postemergence) was 8. The “Cocklebur plant response rating” value ([10]; Rate 125 g/ha, Preemergence) was 1, the “Plant response rating, Cocklebur” value ([10]; Rate 250 g/ha, Postemergence) was 8 and the “Plant response rating, Cocklebur” value ([10]; Rate 250 g/ha, Preemergence) was 1. The “Plant response rating, Cocklebur” value ([10]; Rate 500 g/ha, Postemergence) was 9, the “Plant response rating, Cocklebur” value ([10]; Rate 500 g/ha, Preemergence) was 3 and the “Plant response rating, Redroot pigweed” value ([11]; Rate 62 g/ha, Postemergence) was 7. For the same compound, the “Redroot pigweed plant response rating” value ([11]; Rate 62 g/ha, Preemergence) was 10, the “Plant response rating, Redroot pigweed” value ([11]; Rate 125 g/ha, Postemergence) was 9 and the “Redroot pigweed plant response rating” value ([11]; Rate 125 g/ha, Preemergence) was 10. For the same compound, the “Plant response rating, Redroot pigweed” value ([11]; Rate 250 g/ha, Postemergence) was 9, the “Plant response rating, Redroot pigweed” value ([11]; Rate 250 g/ha, Preemergence) was 10 and the “Plant response rating, Redroot pigweed” value ([11]; Rate 500 g/ha, Postemergence) was 9. For the same compound, the “Plant response rating, Redroot pigweed” value ([11]; Rate 500 g/ha, Preemergence) was 10.
